{
  "source": "patent US8258154B2",
  "about": "“Bicyclic heteroaryl inhibitors of PDE4” (Kalypsys Inc., priority 2006, dated 2012)",
  "system": "Lacrimal gland inflammation-induced dry eye",
  "test": "Lacrimal gland inflammation-induced dry eye in rabbits (corneal staining, tear breakup time)",
  "format": "in vivo",
  "details": "rabbit, topical ocular BID, percent concentration 1",
  "description": "A more detailed description of the assay used herein may be found in Naglehout, T J et al. 2005, “Preservation of Tear Film Integrity and Inhibition of Corneal Injury by Dexamethasone in a Rabbit Model of Lacrimal Gland Inflammation-Induced Dry Eye,” J. Ocular Pharm. Ther., 21:2. 139-148, the disclosure of which is hereby incorporated by reference as if written herein in its entirety. Rabbits (n=4/group) were randomized into treatment groups and dosed topically BID with maxidex vehicle or test drug beginning one day prior to initiation of dry eye. Each rabbit received bilateral lacrimal gland injections of saline or ConA (300 μg/30 μl) and topical ocular dosing was continued BID throughout the study. Desiccation was initiated 1-2 hours following lacrimal gland injection by placing conscious rabbits in the environmental chamber (10-15% humidity/72° F.). […] Absorbance of the extracted dye was determined at 660 nm. TBUT was quantified in a separate group of treated animals. TBUT was determined by instilling 5 μL sodium fluorescein into the cul de sac and manually blinking the lids to distribute the fluorescein within the tear film. Under slit lamp observation, the eye was held open and the time whereby one or more black spots or streaks appeared in the precorneal tear film was recorded. […]",
  "data": [
    {"molecule": "COc1ccc2c(Nc3c(Cl)cncc3Cl)cc(=O)[nH]c2c1OC1CCCC1", "note": "[Example 1, 8-(Cyclopentyloxy)-4-(3,5-dichloropyridin-4-ylamino)-7-methoxyquinolin-2(1H)-one]", "values": [
      {"measurement": "Activity at Percent Concentration Tested 1", "result": "Inac-"}
    ]}
  ]
}
